Reference: US9181239B2, “Pyridopyrimidinone inhibitors of kinases” (AbbVie Inc., priority 2011, dated 2015)

Target: T1, Wee1 kinase (Homo sapiens, UniProt P30291)
T1 construct: purchased Carnabio 05-177
Experiment: Wee1 time-resolved fluorescence equilibrium binding assay (probe displacement)
Conditions: GST-tagged-Wee1 kinase 2 nM, fluorescent probe 300 nM, 1 hour incubation; read-out: Wee-1 binding (Ki nM)
Description: Wee1 kinase was assayed using a time-resolved fluorescence equilibrium binding assay monitoring displacement of a rapidly reversible Oregon Green-labeled ATP-competitive kinase probe (N-(2-(2-(2-(4-(4-(5-chloro-4-(2-(1-hydroxycyclobutyl)thiazol-5-yl)-1H-pyrrolo[2,3-b]pyridin-2-yl)phenyl)piperazin-1-yl)ethoxy)ethoxy)ethyl)-2′,7′-difluoro-3′,6′-dihydroxy-3-oxo-3H-spiro[isobenzofuran-1,9′-xanthene]-5-carboxamide) by competitive Wee1 inhibitors.

T1 sequence (P30291 whole entry): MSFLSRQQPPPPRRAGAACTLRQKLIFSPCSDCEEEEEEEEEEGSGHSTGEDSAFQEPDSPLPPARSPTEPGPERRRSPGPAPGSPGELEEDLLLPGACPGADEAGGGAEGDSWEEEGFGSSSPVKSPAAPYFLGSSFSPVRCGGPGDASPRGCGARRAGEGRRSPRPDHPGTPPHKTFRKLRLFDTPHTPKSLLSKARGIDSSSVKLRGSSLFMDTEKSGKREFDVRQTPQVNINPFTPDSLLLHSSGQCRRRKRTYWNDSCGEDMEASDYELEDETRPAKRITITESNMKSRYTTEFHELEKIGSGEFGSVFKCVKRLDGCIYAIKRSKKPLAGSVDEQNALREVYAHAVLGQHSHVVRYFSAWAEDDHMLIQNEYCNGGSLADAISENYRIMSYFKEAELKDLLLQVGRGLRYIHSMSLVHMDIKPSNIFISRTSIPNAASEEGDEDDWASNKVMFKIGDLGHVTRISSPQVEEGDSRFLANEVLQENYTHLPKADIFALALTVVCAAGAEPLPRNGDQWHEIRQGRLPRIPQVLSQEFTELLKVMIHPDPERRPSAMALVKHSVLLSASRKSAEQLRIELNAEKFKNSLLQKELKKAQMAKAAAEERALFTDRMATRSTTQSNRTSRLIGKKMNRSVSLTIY

SMILES	Ki
CN1CCN(c2ccc(Nc3ncc4c(=O)c(-c5c(Cl)cccc5Cl)cn(Cc5ccncc5)c4n3)cc2)CC1 [Example 12, 6-(2,6-dichlorophenyl)-2-{[4-(4-methylpiperazin-1-yl)phenyl]amino}-8-(pyridin-4-ylmethyl)pyrido[2,3-d]pyrimidin-5(8H)-one]	14 nM
CN(C)CCCN1CCN(c2ccc(Nc3ncc4c(=O)c(-c5c(Cl)cccc5Cl)cn(C)c4n3)cc2)CC1 [Example 78, 6-(2,6-dichlorophenyl)-2-[(4-{4-[3-(dimethylamino)propyl]piperazin-1-yl}phenyl)amino]-8-methylpyrido[2,3-d]pyrimidin-5(8H)-one]	1.2 nM
CN1CCN(c2ccc(Nc3ncc4c(=O)c(-c5ccccc5Cl)cn(C)c4n3)cc2)CC1 [Example 5, 6-(2-chlorophenyl)-8-methyl-2-{[4-(4-methylpiperazin-1-yl)phenyl]amino}pyrido[2,3-d]pyrimidin-5(8H)-one]	3.7 nM
COc1ccc(Cn2cc(-c3c(F)cccc3Cl)c(=O)c3cnc(Nc4ccc5c(c4)CN(C)CC54CC4)nc32)cc1 [Example 36, 6-(2-chloro-6-fluorophenyl)-8-(4-methoxybenzyl)-2-[(2′-methyl-2′,3′-dihydro-1′H-spiro[cyclopropane-1,4′-isoquinolin]-7′-yl)amino]pyrido[2,3-d]pyrimidin-5(8H)-one]	33 nM
Cn1cc(-c2c(Cl)cccc2Cl)c(=O)c2cnc(Nc3ccc4c(c3)CNC4)nc21 [Example 49, 6-(2,6-dichlorophenyl)-2-(2,3-dihydro-1H-isoindol-5-ylamino)-8-methylpyrido[2,3-d]pyrimidin-5(8H)-one]	0.8 nM
CN1CCN(c2ccc(Nc3ncc4c(=O)c(-c5c(Cl)cccc5Cl)cn(CC(C)(C)O)c4n3)cc2)CC1 [Example 16, 6-(2,6-dichlorophenyl)-8-(2-hydroxy-2-methylpropyl)-2-{[4-(4-methylpiperazin-1-yl)phenyl]amino}pyrido[2,3-d]pyrimidin-5(8H)-one]	20 nM
CN1CCN(c2ccc(Nc3ncc4c(=O)c(-c5c(F)cccc5Cl)c[nH]c4n3)cc2)CC1 [Example 40, 6-(2-chloro-6-fluorophenyl)-2-{[4-(4-methylpiperazin-1-yl)phenyl]amino}pyrido[2,3-d]pyrimidin-5(8H)-one]	2.4 nM
CCn1cc(-c2c(Cl)cccc2Cl)c(=O)c2cnc(Nc3ccc(N4CCN(C)CC4)cc3)nc21 [Example 31, 6-(2,6-dichlorophenyl)-8-ethyl-2-{[4-(4-methylpiperazin-1-yl)phenyl]amino}pyrido[2,3-d]pyrimidin-5(8H)-one]	0.6 nM
Cn1cc(-c2c(F)cccc2Cl)c(=O)c2cnc(Nc3ccc4c(c3)CCNC4)nc21 [Example 75, 6-(2-chloro-6-fluorophenyl)-8-methyl-2-(1,2,3,4-tetrahydroisoquinolin-6-ylamino)pyrido[2,3-d]pyrimidin-5(8H)-one]	1.3 nM
COC(=O)c1cc(Nc2ncc3c(=O)c(-c4c(Cl)cccc4Cl)cn(C)c3n2)ccc1N1CCN(C)CC1 [Example 71, methyl 5-{[6-(2,6-dichlorophenyl)-8-methyl-5-oxo-5,8-dihydropyrido[2,3-d]pyrimidin-2-yl]amino}-2-(4-methylpiperazin-1-yl)benzoate]	0.7 nM
CN1CCN(c2ccc(Nc3ncc4c(=O)c(-c5ccccc5Cl)cn(-c5ccccc5)c4n3)cc2)CC1 [Example 2, 6-(2-chlorophenyl)-2-{[4-(4-methylpiperazin-1-yl)phenyl]amino}-8-phenylpyrido[2,3-d]pyrimidin-5(8H)-one]	2.4 nM
Cc1cc(Nc2ncc3c(=O)c(-c4c(Cl)cccc4Cl)cn(C)c3n2)ccc1N1CCCN(C)CC1 [Example 19, 6-(2,6-dichlorophenyl)-8-methyl-2-{[3-methyl-4-(4-methyl-1,4-diazepan-1-yl)phenyl]amino}pyrido[2,3-d]pyrimidin-5(8H)-one]	0.3 nM
CN1Cc2cc(Nc3ncc4c(=O)c(-c5c(F)cccc5Cl)cn(C5CC5)c4n3)ccc2C2(CC2)C1 [Example 38, 6-(2-chloro-6-fluorophenyl)-8-cyclopropyl-2-[(2′-methyl-2′,3′-dihydro-1′H-spiro[cyclopropane-1,4′-isoquinolin]-7′-yl)amino]pyrido[2,3-d]pyrimidin-5(8H)-one]	1.3 nM
CN1CCN(c2ccc(Nc3ncc4c(=O)c(-c5c(Cl)cccc5Cl)c[nH]c4n3)cc2)CC1 [Example 18, 6-(2,6-dichlorophenyl)-2-{[4-(4-methylpiperazin-1-yl)phenyl]amino}pyrido[2,3-d]pyrimidin-5(8H)-one]	0.3 nM
Cn1cc(-c2c(Cl)cccc2Cl)c(=O)c2cnc(Nc3ccc(N[C@H]4CCNC4)cc3)nc21 [Example 64, 6-(2,6-dichlorophenyl)-8-methyl-2-({4-[(3S)-pyrrolidin-3-ylamino]phenyl}amino)pyrido[2,3-d]pyrimidin-5(8H)-one]	0.4 nM
CN(C)C1CCN(c2ccc(Nc3ncc4c(=O)c(-c5c(Cl)cccc5Cl)cn(C)c4n3)cc2)CC1 [Example 44, 6-(2,6-dichlorophenyl)-2-({4-[4-(dimethylamino)piperidin-1-yl]phenyl}amino)-8-methylpyrido[2,3-d]pyrimidin-5(8H)-one]	0.5 nM

SMILES	Ki
CN1Cc2cc(Nc3ncc4c(=O)c(-c5c(F)cccc5Cl)cn(C)c4n3)ccc2C2(CC2)C1 [Example 34, 6-(2-chloro-6-fluorophenyl)-8-methyl-2-[(2′-methyl-2′,3′-dihydro-1′H-spiro[cyclopropane-1,4′-isoquinolin]-7′-yl)amino]pyrido[2,3-d]pyrimidin-5(8H)-one]	0.4 nM
Cn1cc(-c2c(Cl)cccc2Cl)c(=O)c2cnc(Nc3ccc(N[C@H]4CC[C@@H](N(C)C)CC4)cc3)nc21 [Example 77, 6-(2,6-dichlorophenyl)-2-[(4-{[cis-4-(dimethylamino)cyclohexyl]amino}phenyl)amino]-8-methylpyrido[2,3-d]pyrimidin-5(8H)-one]	0.5 nM
CN1Cc2cc(Nc3ncc4c(=O)c(-c5c(Cl)cccc5Cl)c[nH]c4n3)ccc2C2(CC2)C1 [Example 30, 6-(2,6-dichlorophenyl)-2-[(2′-methyl-2′,3′-dihydro-1′H-spiro[cyclopropane-1,4′-isoquinolin]-7′-yl)amino]pyrido[2,3-d]pyrimidin-5(8H)-one]	0.2 nM
CN1CCN(c2ccc(Nc3ncc4c(=O)c(-c5c(Cl)cccc5Cl)cn(C5CCC5)c4n3)cc2)CC1 [Example 15, 8-cyclobutyl-6-(2,6-dichlorophenyl)-2-{[4-(4-methylpiperazin-1-yl)phenyl]amino}pyrido[2,3-d]pyrimidin-5(8H)-one]	0.6 nM
CN(C)CCN1CCN(c2ccc(Nc3ncc4c(=O)c(-c5c(Cl)cccc5Cl)cn(C)c4n3)cc2)CC1 [Example 79, 6-(2,6-dichlorophenyl)-2-[(4-{4-[2-(dimethylamino)ethyl]piperazin-1-yl}phenyl)amino]-8-methylpyrido[2,3-d]pyrimidin-5(8H)-one]	0.8 nM
CN1CCN(c2ccc(Nc3ncc4c(=O)c(-c5c(F)cccc5Cl)cn(C)c4n3)cc2)CC1 [Example 33, 6-(2-chloro-6-fluorophenyl)-8-methyl-2-{[4-(4-methylpiperazin-1-yl)phenyl]amino}pyrido[2,3-d]pyrimidin-5(8H)-one]	1.5 nM
CN1Cc2cc(Nc3ncc4c(=O)c(-c5c(Cl)cccc5Cl)cn(C)c4n3)ccc2C1(C)C [Example 60, 6-(2,6-dichlorophenyl)-8-methyl-2-[(1,1,2-trimethyl-2,3-dihydro-1H-isoindol-5-yl)amino]pyrido[2,3-d]pyrimidin-5(8H)-one]	0.2 nM
CN1Cc2cc(Nc3ncc4c(=O)c(-c5c(Cl)cccc5Cl)cn(C5CC5)c4n3)ccc2C(C)(C)C1 [Example 23, 8-cyclopropyl-6-(2,6-dichlorophenyl)-2-[(2,4,4-trimethyl-1,2,3,4-tetrahydroisoquinolin-7-yl)amino]pyrido[2,3-d]pyrimidin-5(8H)-one]	0.8 nM
CN1Cc2cc(Nc3ncc4c(=O)c(-c5c(Cl)cccc5Cl)c[nH]c4n3)ccc2C(C)(C)C1 [Example 42, 6-(2,6-dichlorophenyl)-2-[(2,4,4-trimethyl-1,2,3,4-tetrahydroisoquinolin-7-yl)amino]pyrido[2,3-d]pyrimidin-5(8H)-one]	0.2 nM
CN1Cc2cc(Nc3ncc4c(=O)c(-c5c(Cl)cccc5Cl)cn(C)c4n3)ccc2C2(CC2)C1 [Example 14, 6-(2,6-dichlorophenyl)-8-methyl-2-[(2′-methyl-2′,3′-dihydro-1′H-spiro[cyclopropane-1,4′-isoquinolin]-7′-yl)amino]pyrido[2,3-d]pyrimidin-5(8H)-one]	0.3 nM
CN1CCc2ccc(Nc3ncc4c(=O)c(-c5c(Cl)cccc5Cl)cn(C)c4n3)cc2C1 [Example 52, 6-(2,6-dichlorophenyl)-8-methyl-2-[(2-methyl-1,2,3,4-tetrahydroisoquinolin-7-yl)amino]pyrido[2,3-d]pyrimidin-5(8H)-one]	0.5 nM
CN1CCN(c2ccc(Nc3ncc4c(=O)c(-c5c(Cl)cccc5Cl)cn(C5COC5)c4n3)cc2)CC1 [Example 27, 6-(2,6-dichlorophenyl)-2-{[4-(4-methylpiperazin-1-yl)phenyl]amino}-8-(oxetan-3-yl)pyrido[2,3-d]pyrimidin-5(8H)-one]	1.3 nM
CN1CCN(c2ccc(Nc3ncc4c(=O)c(-c5ccccc5Cl)c[nH]c4n3)cc2)CC1 [Example 1, 6-(2-chlorophenyl)-2-{[4-(4-methylpiperazin-1-yl)phenyl]amino}pyrido[2,3-d]pyrimidin-5(8H)-one]	9.5 nM
CN1CCN(c2ccc(Nc3ncc4c(=O)c(-c5ccccc5Cl)c(-c5ccccc5)[nH]c4n3)cc2)CC1 [Example 3, 6-(2-chlorophenyl)-2-{[4-(4-methylpiperazin-1-yl)phenyl]amino}-7-phenylpyrido[2,3-d]pyrimidin-5(8H)-one]	37 nM
CN1CCN(c2ncc(Nc3ncc4c(=O)c(-c5c(Cl)cccc5Cl)cn(C)c4n3)cn2)CC1 [Example 59, 6-(2,6-dichlorophenyl)-8-methyl-2-{[2-(4-methylpiperazin-1-yl)pyrimidin-5-yl]amino}pyrido[2,3-d]pyrimidin-5(8H)-one]	18 nM
